Consider 14 compounds from patent US4585777A, “(-)-Trans-4-(4-fluorophenyl)-3-(4-methoxyphenoxy)methylpiperidine for potentiating 5-HT” (A/S Ferrosan, priority 1984, dated 1986).

One series in a line: in vivo. Conditions: mouse, in vivo, sc, TI (Therapeutic Index), 001/173, LD50/ED50, mice s.c. From the text: (§1) (J. Buus Lassen, European Journal of Pharmacology 47, 351-358 (1978)). See also Squires in Acta Pharmacol. et Toxicol, 1972, 31 Suppl. 1,35 for a description of a further procedure for measurement of the same 5-HT uptake-inhibitory phenomenon.
Series [1] relates to mice. Nature of the series: in vivo. Conditions: for FG 7080 is better by: T.I. Factor: factor by which FG 7080 is better than the listed compound; for FG 7080 is better by: T.I. %: percent by which FG 7080 is better than the listed compound; for TI (Therapeutic Index), 001/173: LD50/ED50, mice s.c.
Source text: as §1

Another series deals with 5-HT uptake. Nature of the series: Potentiation of 5-HTP (5-Hydroxytryptophane) induced hypermotility in mice (Procedure/Test 173); 5-HT potentiation or 5-HT uptake-inhibition. It counts as in vivo, mice (female, NMRI strain). The following applies: for ED (2-fold activity of controls): Mus musculus, sc, read-out: Test 173: dose increasing the activity to double the activity of controls receiving 5-HTP alone (ED), mice, s.c.; for FG 7080 is better by: 5-HT Potentiation Factor: factor by which FG 7080 is better than the listed compound; for FG 7080 is better by: 5-HT Potentiation %: percent by which FG 7080 is better than the listed compound.
Source text: as §1
I. Potentiation of 5-HTP (5-Hydroxytryptophane) induced hypermotility in mice (Procedure 173)
(§2) This behavior is characterized by continuous jerky locomotion, head movements from side to side, abduction of the hind limbs, tremor, and lordosis.
Measurement of the motility after administration of test drugs to 5-HTP-pretreated mice is therefore used as a test for 5-HT-potentiation, which most probably proceeds through an inhibition of 5-HT uptake.
Method: Female mice of the NMRI strain weighing 20-22 g are used. The controls receive 5-HTP 150 mg/kg (15 ml/kg) i.p. (i.p.=intraperitoneally) and thirty (30) minutes later physiological saline (20 ml/kg) s.c. (s.c.=subcutaneously). The motility is measured by an Animex™ motimeter 45-75 minutes after 5-HTP administration. The test animals received test substances s.c. (20 ml/kg) instead of physiological saline. Five groups of two (2) mice are used for control and per dose of each test drug. the test substance is dosed according to the dose scale 1, 1.6, 2.5, 4, 6.3, and 10 mg/kg etc.
The best straight line is fitted through the points in a coordinate system (abscissa log dose, ordinate log activity). […] The activity of controls is investigated in thirty (30) groups of two (2) mice.

Series [2] in a line: Acute Toxicity in Mice (Procedure/Test 001). It counts as in vivo. Conditions: mouse, in vivo, sc, lethality at 24 hours, water-soluble salt. From the text: (§3) II. Acute Toxicity in Mice (Procedure 001)
(§4) Results are expressed as LD50 = . . . mg/kg s.c.

In series [3] the test system is mice. Nature of the series: Acute Toxicity in Mice (Procedure/Test 001). It counts as in vivo. The following applies: s.c., lethality at 24 hours, water-soluble salt, 1440 min.
Source text: as §3, §4

Series [4] deals with mice. Conditions: Reference 6; cited from earlier work.
Series [5] relates to mice. Nature of the series: Locomotor activity / behavior in mice after 5-HTP, with or without pretreatment (background of Procedure 173). It counts as in vivo.
Source text: as §2
Therefore, increased 5-HT in brain seems to be necessary for development of the abnormal behavior, but catecholamine release is probably not related to hyperactivity.

For series [6] the following is noted: References 1-4, cited from earlier work.
The mark [7] stands for this setting: 5-HTP 150 mg/kg i.p. 30 min before, motility 45-75 min after 5-HTP, water-soluble salt.
The mark [8] stands for this setting: versus (+) trans isomer FG 8035.

On to `COc1ccc(OC[C@@H]2CN(C)CC[C@H]2c2ccc(F)cc2)cc1` (relative stereo) [FG 98-I], for which the selectivity ratio in “in vivo” turned out to be 461. In addition, in the series on mice [1], the “FG 7080 is better by: T.I. Factor” value is listed as 2.17 and the “FG 7080 is better by: T.I. %” value is reported as 217%. For the same compound, the ED (2-fold activity of controls) in the series on 5-HT uptake (setting [7]) was 1.3 mg/kg. In addition, in the series on 5-HT uptake, the “FG 7080 is better by: 5-HT Potentiation Factor” value worked out at 1.3 and the “FG 7080 is better by: 5-HT Potentiation %” value stood at 130%. In addition, the LD50 at 24 h in series [2] amounted to 600 mg/kg.
As to `COc1ccc(OC[C@@H]2CN(C)CC[C@H]2c2ccccc2)cc1` (single isomer, unassigned) [FG 4962, reference compound], in the series on mice [1], the “TI (Therapeutic Index), 001/173” value worked out at 53; the “FG 7080 is better by: T.I. Factor” value amounted to 19.87; the “FG 7080 is better by: T.I. %” value is on record as 1887%. Moreover, in the series with 5-HT uptake, the “FG 7080 is better by: 5-HT Potentiation Factor” value is on record as 3.8 and the “FG 7080 is better by: 5-HT Potentiation %” value amounted to 380%. Besides, the “Test 173: dose increasing the activity to double the activity of controls receiving 5-HTP alone (ED)” value with 5-HT uptake (mice, s.c., 5-HTP 150 mg/kg i.p. 30 min before, motility 45-75 min after 5-HTP, water-soluble salt) was determined as 3.8 mg/kg. Further, the “Test 001: LD50” value in the series with mice [3] is listed as 200 mg/kg.
For `NNCc1cccc(O)c1` [3-hydroxybenzylhydrazine], in the series with mice [4], the “effect of pretreatment on the hyperactivity (5-HTP plus 5-HT-uptake blocker)” value is listed as “inhibited it significantly”.
For `Fc1ccc([C@@H]2CCNC[C@H]2COc2ccc3c(c2)OCO3)cc1` (single isomer, unassigned) [FG 7051], the LD50 at 24 h in series [2] amounted to 285 mg/kg.
Turning to `COc1ccc(OC[C@@H]2CNCC[C@H]2c2ccc(F)cc2)cc1` (single isomer, unassigned) [FG 7080, (-)-trans-4-(4-fluorophenyl)-3-(4-methoxyphenoxy)methylpiperidine], the “TI (Therapeutic Index), 001/173” value with mice [1] came out at 1000. The “Therapeutic Index compared with most structurally closely-related compounds, in words” value in the series on mice [1] (Table I comparison) was “even more remarkably and unpredictably superior”. Moreover, in the series with mice [1] (versus FG 4996), the “superior as to Therapeutic Index, as %” value is on record as more than 7100% and the “superior by a factor as to Therapeutic Index” value was “greater than 71 times”. Besides, in the series with mice [1] (versus FG 7006), the “Therapeutic Index, as %” value is on record as more than 5500% and the “Therapeutic Index, times as great” value is “more than 55 times”. In addition, in the series with mice [1] (versus FG 8035), the “Therapeutic Index, as %” value is reported as more than 4100% and the “Therapeutic Index, times as great” value is “more than 41 times”. The ED (2-fold activity of controls) in the series with 5-HT uptake (setting [7]) was determined as 1 mg/kg. The “5-HT potentiation compared with most structurally closely-related compounds, in words” value in the series on 5-HT uptake (Table I comparison) was “remarkably and unpredictably superior”. In addition, in the series on 5-HT uptake (setting [8]), the “times as active in 5-HT potentiation” value is recorded as “approximately 22 times” and the “times as active in 5-HT potentiation, as %” value is reported as approximately 2200%. Also, in the series on 5-HT uptake (versus FG 4996), the “superior as to 5-HT potentiation, as %” value is recorded as approximately 900% and the “superior by a factor as to 5-HT potentiation” value is “approximately 9 times”. In the series with 5-HT uptake (versus FG 7006), the “5-HT potentiation activity, as %” value is reported as approximately 2000% and the “5-HT potentiation activity, times as great” value is reported as “approximately 20 times”. Moreover, the LD50 at 24 h in series [2] stood at 1000 mg/kg.
Regarding `CC(N)(Cc1ccc(O)cc1)C(=O)O` (stereo not drawn) [α-methyl-p-tyrosine], the “effect of pretreatment on the hyperactivity (5-HTP plus 5-HT-uptake blocker)” value with mice [4] is given as “does not influence this hyperactivity”.
With `COc1ccc(OC[C@@H]2CN(C)CC[C@H]2c2ccccc2)cc1` (single isomer, unassigned) [FG 4963, reference compound], in the series on mice [1], the “TI (Therapeutic Index), 001/173” value came out at 134; the “FG 7080 is better by: T.I. Factor” value amounted to 7.46; the “FG 7080 is better by: T.I. %” value is 746%. Further, the ED (2-fold activity of controls) in the series on 5-HT uptake (setting [7]) came out at 2.8 mg/kg. Moreover, in the series on 5-HT uptake, the “FG 7080 is better by: 5-HT Potentiation Factor” value is given as 2.8 and the “FG 7080 is better by: 5-HT Potentiation %” value worked out at 280%. Besides, in series [2], the 50% lethal dose (LD50) at 24 h worked out at 375 mg/kg.
Regarding `CN1CC[C@@H](c2ccc(F)cc2)[C@H](COc2ccc3c(c2)OCO3)C1` (single isomer, unassigned) [FG 7043, reference compound], the selectivity ratio in the series “in vivo” amounted to 63. Moreover, the ED (2-fold activity of controls) in the series with 5-HT uptake (setting [7]) was determined as 4 mg/kg. For the same compound, the LD50 at 24 h in series [2] was determined as 250 mg/kg.
Turning to `CC(=O)O.COc1ccc(OC[C@@H]2CNCC[C@H]2c2ccc(F)cc2)cc1` (single isomer, unassigned) [FG 8035, (+)-trans-4-(4-fluorophenyl)-3-((4-methoxyphenoxy)methyl)piperidine acetate], the “TI (Therapeutic Index), 001/173” value in the series on mice [1] amounted to 24. In the series on 5-HT uptake (setting [7]), the ED (2-fold activity of controls) was found to be 22 mg/kg. Moreover, the LD50 at 24 h in series [2] is 530 mg/kg.
The matching figures for `COc1ccc(OC[C@@H]2CN(C)CC[C@H]2c2ccc(F)cc2)cc1` (single isomer, unassigned) [FG 8033, (-)-trans-4-(4-fluorophenyl)-3-[(4-methoxyphenoxy)-methyl]-1-methyl-piperidine]: 800, 0.5 mg/kg and 400 mg/kg.
For the compound `COc1ccc(OC[C@@H]2CNCC[C@H]2c2ccccc2)cc1` (single isomer, unassigned) [FG 4996, reference compound], the selectivity ratio in “in vivo” was found to be 14. In the series with 5-HT uptake (setting [7]), the ED (2-fold activity of controls) was 9 mg/kg. In the series with mice [3], the “Test 001: LD50” value is listed as 125 mg/kg.
On to `COc1ccc(OC[C@@H]2CN(C)CC[C@H]2c2ccccc2)cc1` (relative stereo) [FG 4932, reference compound], for which the selectivity ratio in the series “in vivo” is 13. For the same compound, in the series with 5-HT uptake (setting [7]), the ED (2-fold activity of controls) turned out to be 7.7 mg/kg. Besides, the LD50 at 24 h in series [2] was 100 mg/kg.
On to `COc1ccc(OC[C@@H]2CN(C)CC[C@H]2c2ccc(F)cc2)cc1.Cl` (single isomer, unassigned) [FG 8032, (+)-trans-4-(4-fluorophenyl)-3-[(4-methoxyphenoxy)methyl]-1-methylpiperidine hydrochloride], for which, in the series on mice [1], the “TI (Therapeutic Index), 001/173” value came out at 17; the “FG 7080 is better by: T.I. Factor” value is 58.82; the “FG 7080 is better by: T.I. %” value amounted to 5882%. In addition, the ED (2-fold activity of controls) in the series with 5-HT uptake (setting [7]) is 23 mg/kg. Moreover, in the series on 5-HT uptake, the “FG 7080 is better by: 5-HT Potentiation Factor” value was determined as 23 and the “FG 7080 is better by: 5-HT Potentiation %” value is 2300%. In series [2], the LD50 at 24 h is 400 mg/kg.
On to `N[C@@H](Cc1c[nH]c2ccc(O)cc12)C(=O)O` [5-HTP, 5-Hydroxytryptophane], for which the “motility / locomotor activity” value is reported as “producing a small decrease of motility” in the series with mice [5] (5-HTP 150 mg/kg) and “increasing the activity” in the series with mice [5] (5-HTP 600 mg/kg). Further, in series [6] (high doses, parenteral), the “concentration of NA and DA” value was “decrease the concentration of NA and DA”. The “brain concentration of 5-HT” value in series [6] (parenteral treatment) was “increases the brain concentration of 5-HT”.
